US6624140B1, “Synthetic peptides with antimicrobial and endotoxin neutralizing properties for management of the sepsis syndrome” (Academisch Ziekenhuis Bij de Universiteit van Amsterdam …, priority 1997, dated 2003)
No end group written: not given here.

Columns and labels:
[1] = Murine model of lethal endotoxemia; type: in vivo, mice; conditions: at 7 days; 5 mg/kg i.p. 20 min before Actinomycin D 800 μg/Kg plus LPS 5 μg/Kg; three experiments combined
Method: FIG. 13. Efficacy of synthetic peptide BP2 on survival in a murine model of lethal endotoxemia. Outbred femal Swiss-Webster mice of 7 to 8 weeks, weighing 28 to 30 g were treated with BP2 peptide by intraperitoneal (i.p) administration of a dose of 5 mg/Kg in pyrogen-free saline. Twenty minutes later the mice were challenged by i.p administration of the sensitizing agent Actinomycin D at 800 μg/Kg plus lethal concentrations of purified E. coli 0111:B4 LPS at 5 or 11 μg/Kg. Control groups only received Actinomycin D plus LPS. Survival was recorded at 24 h intervals during a 7 day period of observation. The indicated values are the combined results of three independent experiments.
The efficacy of the peptides of the invention in the protection of experimental animals against the toxic effects of LPS or live pathogenic bacteria was investigated with the use of murine models of lethal endotoxemia and peritonitis Laboratory mice, which are normally tolerant to high doses of endotoxin and require a lethal dose (LD100) of approximately 1 mg, may be sensitized with Actinomycin D to 10,000×lower amounts of endotoxin for lethality. […] The survival of the treated animals was recorded at 24 h intervals during a seven day period of observation and compared with the control groups. […]

[2] = Capture of TAG-labeled endotoxin by immobilized peptide (ECL); type: binding, Escherichia coli; conditions: biotinylated BP2 on streptavidin beads; TAG-labeled J5 LPS
Method: FIGS. 5A and 5B. Capture of labeled endotoxin by immobilized synthetic peptide. 2 ng of biotinylated synthetic peptide BP2, immobilized on 20 μg of streptavidin-coated supramagnetic polystyrene beads (Dynabeads M-280, Dynal A. S., Oslo, Norway) was incubated with the indicated amounts of chemiluminescent TAG-labeled E. coli J5 LPS for 20 min at 23° C. The amount of captured endotoxin, after a washing cycle with Phosphate buffer containing 0.1% (v/v) Triton X100, was determined by electochemiluminescence detection (ECL) using an Origen Analyser (Igen Inc., Rockville, Mass.). […] The values are the means of triplicate determinations corrected for non-specific binding.
Capture of the TAG labeled J5 LPS by immobilized synthetic peptide was quantitated by electrochemiluminescence detection subsequent to washing steps with phosphate buffer containing 0.1% (w/v) Triton X100 to remove excess unbound LPS. […] This confirms the high capacity of immobilized peptides of the invention for endotoxin in solution. […] LPS with high affinity and are universal lipid A binding ligands. The above mentioned microplate experiments were employed to determine the endotoxin binding activity and specificity of the synthetic peptides and formed the basis for the development of a novel highly sensitive endotoxin assay. […] The same degree of concentration-dependent inhibition was observed when various amounts of added endotoxin were assayed directly in plasma dilutions.

[3] = Double-immunodiffusion against Re-LPS; type: binding, Escherichia coli; conditions: 0.8% agarose, 16 h at 20° C.; data not shown
Method: Double-immunodiffusion of the peptides of the invention against ‘rough’ R-type E. coli D31m4 Re-LPS (List Biological Laboratories Inc., Calif.) or the structurally more complex ‘smooth’ S-type E. coli 0111:B4 LPS (Sigma Chemical Co., Rockford, Ill.) was performed in 0.8% (w/v) agarose containing 50 mM Tris and 0.1% (w/v) Triton X100, pH 7.5. for 16 h at 20° C. PmB and BPI(85-102) were included as control compounds for comparative purposes. The microprecipitates formed were visualized by Coommassie brilliant blue staining. […] Since the amount of precipitate formed is a function of valency, the peptides of the invention appear to be capable of a high degree of intermolecular binding of LPS molecules via the Lipid A moieties. […] The degree of precipitation of endotoxin by the synthetic peptides according to the invention was determined by measurement of the optical density of insoluble complexes formed at 340 nm (FIG. 2). […] Binding characteristics of biotinylated derivatives of the synthetic peptides BP1, BP2, BP2.1 and the control peptide BPI(85-102) were determined on ELISA microtiter plates coated with E. coli D31m4 Lipid A. Specific binding of the biotinylated peptides to the immobilized Lipid A was determined by development with Streptavidin-HRP and 3, 5, 3′, 5′ tetra-methylbenzidine (TMB) substrate and expressed as the corrected optical density at 450 nm. […]

Substance | survival [1] [%] | molar excess of LPS up to which binding response is linear [2] [fold] | molar excess of endotoxin at saturation [2] [fold] | stochiometric ratio of peptide to LPS up to which capture is linear [2] | precipitation of Re LPS [3]
GKWKLFKKAFKKFLKILAC-OH [BP2, Gly-Lys-Trp-Lys-Leu-Phe-Lys-Lys-Ala-Phe-Lys-Lys-Phe-Leu-Lys-Ile-Leu-Ala-Cys] | 75 | 2 | 8 | 1 to 2 | –
Ile-Lys-Ile-Ser-Gly-Lys-Trp-Lys-Ala-Gin-Lys-Arg-Phe-Leu-Lys-Met-Ser-Gly-(Cys) (IKISGKWKAQKRFLKMSGC; listed as Homo sapiens) [BPI(85-102), reference compound] | – | – | – | – | considerably less
